This is an account of results in patent US20090291088A1, “THERAPEUTIC COMBINATIONS OF ANTI-IGF-1R ANTIBODIES AND OTHER COMPOUNDS” (Biogen Idec MA Inc., priority 2008, published 2009).

One assay concerns IGF-1R-Fc. The assay can be described thus: Surface plasmon resonance analysis of the IGF-1R-Fc mutant library (46 mutants). In kind it is binding, human. As to conditions: for C06 binding: M13-C06 Fab; for C06 binding / G11 binding / P1E2 binding / αIR3 binding / C03 binding: KD relative to WT hIGF-1R-Fc; for G11 binding: M14-G11 Fab; for P1E2 binding: P1E2 antibody; for αIR3 binding: αIR3 antibody; for C03 binding: M14-C03 Fab. The method, then:
Surface plasmon resonance (SPR) experiments were performed on a Biacore 3000 instrument set to 25° C. Both mIGF-1R-Fc and hIGF-1R-Fc bind with high apparent affinity to research grade CM5 sensorchip surfaces containing immobilized M13-C06, M14-C03, and M14-G11. The antibody sensorchip surfaces were prepared by injecting each antibody (diluted 100 μg/mL in 10 mM Acetate, pH 4.0) over EDC/NHS-activated sensorchip surfaces according to the standard protocol of the manufacturer. The ability of mIGF-1R-Fc to bind the antibody surfaces was the result of high apparent avidity of the protein. Both hIGF-1R-Fc and mIGF-1R-Fc proteins oligomerize due to the incorporation of two separate homodimeric regions (IGF-1R and IgG1-Fc). To distinguish between actual high affinity antibody binding to hIGF-1R-Fc and low affinity antibody binding to mIGF-1R-Fc, the receptor-Fc fusions were captured on the M13-C06 and M14-G11 sensorchip surfaces followed by an additional injection of antibody (αIR3 and P1E2) or antibody Fab (M13-C06, M14-C03, and M14-G11). […] After, completion of the receptor-Fc loading step, flow rates were elevated to 5 μl/min. Solutions containing M13-C06 Fab or αIR3 antibody at 10 nM, 3 nM, or 1 nM or M14-C03 Fab, M14-G11 Fab, or P1E2 antibody at 30 nM, 10 nM, or 3 nM were injected (50 μL) subsequent to the loading of each receptor-Fc construct. Dissociation was measured for 7 minutes after the antibody injections were complete. Finally, the flow rate was elevated to 30 μL/min and the chip surfaces were regenerated by 2×10 μL injections of 0.1 M glycine, pH 2.
M13-C06, M14-C03, M14-G11, P1E2 and αIR3 were assayed for their ability to interact with each of the mutant IGF-1R-Fc fusion constructs using surface plasmon resonance (Biacore). To remove the uncertain concentrations of the IGF-1R-Fc fusion constructs as a variable in the assay, each mutant construct was captured on a research grade CM5 chip containing ˜10,000 RU immobilized […], M14-C03, and M14-G11 antibody. To enhance our ability to visualize attenuations in antibody binding to the captured mutant IGF-1R constructs, we utilized enzymatically derived M13-C06, M14-C03, and M14-G11 antigen binding fragments (Fabs).
In general terms: Surface plasmon resonance follows binding to a sensor surface in real time, without labels.

The test system of another assay is IGF-1R. The assay can be described thus: Biacore analysis of the IGF-1R-Fc mutant library: M13-C06 Fab binding to receptor-Fc captured on M13-C06 chip. Set-up: species or system human. To be noted: M13-C06 Fab binding to mutant hIGF-1R-Fc captured on M13-C06 chip. The source says:
Both mIGF-1R-Fc and hIGF-1R-Fc bind with high apparent affinity to the M13-C06, M14-C03, and M14-G11 sensorchip surfaces described above due to their highly multivalent nature induced by the incorporation of two separate homodimeric regions (IGF-1R and IgG1-Fc). To distinguish between the actual high affinity binding hIGF-1R-Fc to M13-C06 and the low affinity binding of mIGF-1R-Fc to M13-C06, the receptor-Fc fusions were captured on the M13-C06 sensorchip surface followed by an additional soluble M13-C06 Fab binding event. […] After, completion of the receptor-Fc loading step, flow rates were elevated to 5 μl/min. 10 nM, […], and 1 nM M13-C06 Fab concentrations were injected (50 μL) subsequent to the loading of each receptor-Fc construct. At the end of each sensorgram, the flow rate was elevated to 30 μl/min and the chip surface was regenerated by 2×10 μL injections of 0.1 M glycine, pH 2.

As for SD001: hIGF-1R-Fc mutant Y28A, in the assay on IGF-1R-Fc, the C06 binding result is “NE (No effect (NE): measured KD within 2.5-fold of WT hIGF-1R-Fc)” and the G11 binding entry is “NE (No effect (NE): measured KD within 2.5-fold of WT hIGF-1R-Fc)”. For the same substance, the “Biacore Relative RUmax” value with IGF-1R worked out at 0.6.
On to SD205: hIGF-1R-Fc mutant E259K S260N, for which, in the assay on IGF-1R-Fc, the G11 binding result was “W (Weak (W): measured KD between 2.5-10-fold higher than WT)”, the P1E2 binding result was “NE (No effect (NE): measured KD within 2.5-fold of WT hIGF-1R-Fc)” and the αIR3 binding result is listed as “NE (No effect (NE): measured KD within 2.5-fold of WT hIGF-1R-Fc)”.
Take SD208: hIGF-1R-Fc mutant V301Y: in the assay with IGF-1R-Fc, the G11 binding entry is on record as “NE (No effect (NE): measured KD within 2.5-fold of WT hIGF-1R-Fc)”, the P1E2 binding entry was “NE (No effect (NE): measured KD within 2.5-fold of WT hIGF-1R-Fc)” and the αIR3 binding result is reported as “W (Weak (W): measured KD between 2.5-10-fold higher than WT)”.
With SD113: hIGF-1R-Fc mutant E570A I571T, in the assay on IGF-1R-Fc, the C06 binding entry was “S (Strong (S): binding to antibody was ablated by mutation)” and the C03 binding entry was “S (Strong (S): binding to antibody was ablated by mutation)”.
Turning to SDWT: wild-type hIGF-1R-Fc, the “Biacore Relative RUmax” value with IGF-1R is 1.0.
SD005: hIGF-1R-Fc mutant A217T: in the assay with IGF-1R-Fc, the C06 binding entry is reported as “NE (No effect (NE): measured KD within 2.5-fold of WT hIGF-1R-Fc)”, the C03 binding result was “NE (No effect (NE): measured KD within 2.5-fold of WT hIGF-1R-Fc)” and the G11 binding result is recorded as “NE (No effect (NE): measured KD within 2.5-fold of WT hIGF-1R-Fc)”. The “Biacore Relative RUmax” value in the assay with IGF-1R was determined as 0.9.
For the substance SD206: hIGF-1R-Fc mutant S263R, in the assay on IGF-1R-Fc, the G11 binding result is “W (Weak (W): measured KD between 2.5-10-fold higher than WT)”, the P1E2 binding entry is given as “NE (No effect (NE): measured KD within 2.5-fold of WT hIGF-1R-Fc)” and the αIR3 binding entry is “W (Weak (W): measured KD between 2.5-10-fold higher than WT)”.
Take SD106: hIGF-1R-Fc mutant T468R: in the assay on IGF-1R-Fc, the C06 binding result is “NE (No effect (NE): measured KD within 2.5-fold of WT hIGF-1R-Fc)” and the C03 binding entry is reported as “NE (No effect (NE): measured KD within 2.5-fold of WT hIGF-1R-Fc)”.
In the case of SD211: hIGF-1R-Fc mutant K327N, in the assay on IGF-1R-Fc, the G11 binding result is on record as “NE (No effect (NE): measured KD within 2.5-fold of WT hIGF-1R-Fc)”, the P1E2 binding result is on record as “NE (No effect (NE): measured KD within 2.5-fold of WT hIGF-1R-Fc)” and the αIR3 binding result is given as “W (Weak (W): measured KD between 2.5-10-fold higher than WT)”.
With SD108: hIGF-1R-Fc mutant H480E, in the assay with IGF-1R-Fc, the C06 binding entry was “S (Strong (S): binding to antibody was ablated by mutation)” and the C03 binding result is listed as “S (Strong (S): binding to antibody was ablated by mutation)”.
On to SD109: hIGF-1R-Fc mutant Y482A R483W, for which, in the assay with IGF-1R-Fc, the C06 binding entry is “S (Strong (S): binding to antibody was ablated by mutation)” and the C03 binding entry was “S (Strong (S): binding to antibody was ablated by mutation)”.
On to SD202: hIGF-1R-Fc mutant D250S, for which, in the assay with IGF-1R-Fc, the G11 binding result was “S (Strong (S): binding to antibody was ablated by mutation)”, the P1E2 binding entry is recorded as “NE (No effect (NE): measured KD within 2.5-fold of WT hIGF-1R-Fc)” and the αIR3 binding entry is given as “NE (No effect (NE): measured KD within 2.5-fold of WT hIGF-1R-Fc)”.
For the substance SD212: hIGF-1R-Fc mutant L379R, in the assay with IGF-1R-Fc, the G11 binding entry is on record as “NE (No effect (NE): measured KD within 2.5-fold of WT hIGF-1R-Fc)”, the P1E2 binding entry is “NE (No effect (NE): measured KD within 2.5-fold of WT hIGF-1R-Fc)” and the αIR3 binding entry is “W (Weak (W): measured KD between 2.5-10-fold higher than WT)”.
As to SD107: hIGF-1R-Fc mutant T478R, in the assay on IGF-1R-Fc, the C06 binding entry is reported as “NE (No effect (NE): measured KD within 2.5-fold of WT hIGF-1R-Fc)” and the C03 binding result is recorded as “W (Weak (W): measured KD between 2.5-10-fold higher than WT)”.
Turning to SD101: hIGF-1R-Fc mutant S427L, in the assay on IGF-1R-Fc, the C06 binding entry was “NE (No effect (NE): measured KD within 2.5-fold of WT hIGF-1R-Fc)” and the C03 binding result was “NE (No effect (NE): measured KD within 2.5-fold of WT hIGF-1R-Fc)”.
As for SD210: hIGF-1R-Fc mutant T308E, in the assay on IGF-1R-Fc, the G11 binding result is listed as “NE (No effect (NE): measured KD within 2.5-fold of WT hIGF-1R-Fc)”, the P1E2 binding result is listed as “NE (No effect (NE): measured KD within 2.5-fold of WT hIGF-1R-Fc)” and the αIR3 binding result is “W (Weak (W): measured KD between 2.5-10-fold higher than WT)”.
As for SD104: hIGF-1R-Fc mutant H464A, in the assay on IGF-1R-Fc, the C06 binding result is “S (Strong (S): binding to antibody was ablated by mutation)” and the C03 binding result is “S (Strong (S): binding to antibody was ablated by mutation)”.
SD105: hIGF-1R-Fc mutant T466L S467Y: in the assay with IGF-1R-Fc, the C06 binding entry is reported as “W (Weak (W): measured KD between 2.5-10-fold higher than WT)” and the C03 binding entry is reported as “W (Weak (W): measured KD between 2.5-10-fold higher than WT)”.
In the case of SD112: hIGF-1R-Fc mutant K568A, in the assay on IGF-1R-Fc, the C06 binding result was “NE (No effect (NE): measured KD within 2.5-fold of WT hIGF-1R-Fc)” and the C03 binding result is “W (Weak (W): measured KD between 2.5-10-fold higher than WT)”.
Regarding SD209: hIGF-1R-Fc mutant K306E, in the assay on IGF-1R-Fc, the G11 binding entry is “NE (No effect (NE): measured KD within 2.5-fold of WT hIGF-1R-Fc)”, the P1E2 binding entry is listed as “NE (No effect (NE): measured KD within 2.5-fold of WT hIGF-1R-Fc)” and the αIR3 binding result was “NE (No effect (NE): measured KD within 2.5-fold of WT hIGF-1R-Fc)”.
With SD207: hIGF-1R-Fc mutant G265Y, in the assay on IGF-1R-Fc, the G11 binding entry is given as “W (Weak (W): measured KD between 2.5-10-fold higher than WT)”, the P1E2 binding entry is reported as “S (Strong (S): binding to antibody was ablated by mutation)” and the αIR3 binding entry is listed as “S (Strong (S): binding to antibody was ablated by mutation)”.
Turning to SD203: hIGF-1R-Fc mutant N254A, in the assay on IGF-1R-Fc, the G11 binding entry is listed as “M (Medium (M): measured KD between 10-100-fold higher than WT)”, the P1E2 binding entry is given as “S (Strong (S): binding to antibody was ablated by mutation)” and the αIR3 binding result is “M (Medium (M): measured KD between 10-100-fold higher than WT)”.
With SD110: hIGF-1R-Fc mutant E533H, in the assay with IGF-1R-Fc, the C06 binding result is listed as “W (Weak (W): measured KD between 2.5-10-fold higher than WT)” and the C03 binding entry is “S (Strong (S): binding to antibody was ablated by mutation)”.
As for SD111: hIGF-1R-Fc mutant I564T R565A, in the assay on IGF-1R-Fc, the C06 binding entry is on record as “W (Weak (W): measured KD between 2.5-10-fold higher than WT)” and the C03 binding entry is recorded as “W (Weak (W): measured KD between 2.5-10-fold higher than WT)”.
For the substance SD201: hIGF-1R-Fc mutant D248A, in the assay with IGF-1R-Fc, the G11 binding entry is reported as “S (Strong (S): binding to antibody was ablated by mutation)”, the P1E2 binding result is “W (Weak (W): measured KD between 2.5-10-fold higher than WT)” and the αIR3 binding result was “S (Strong (S): binding to antibody was ablated by mutation)”.
Take SD102: hIGF-1R-Fc mutant E459A S460A: in the assay with IGF-1R-Fc, the C06 binding result is “S (Strong (S): binding to antibody was ablated by mutation)” and the C03 binding result is recorded as “S (Strong (S): binding to antibody was ablated by mutation)”.
Turning to SD103: hIGF-1R-Fc mutant D461A V462T, in the assay with IGF-1R-Fc, the “effect of mutation on M13-C06 and M14-C03 Fab binding” value is “no reactivity towards the M13-C06 and M14-C03 Fabs”; the C06 binding result is listed as “S-most”; the C03 binding result was “S-most”.
As for SD204: hIGF-1R-Fc mutant S257K, in the assay on IGF-1R-Fc, the G11 binding result is on record as “W (Weak (W): measured KD between 2.5-10-fold higher than WT)”, the P1E2 binding result was “M (Medium (M): measured KD between 10-100-fold higher than WT)” and the αIR3 binding entry is given as “NE (No effect (NE): measured KD within 2.5-fold of WT hIGF-1R-Fc)”.
